Holding throughout (format): cell-based
In experiment [1] the target is Mer (phospho-Mer, MERTK-transfected 293A cells) (Homo sapiens (Human), UniProt Q12866). Nature of the experiment: Mer autophosphorylation ELISA in transient transfected 293A cells (Example H). The following applies: cellular activity; Mer autophosphorylation ELISA in transient transfected 293A cells. Put shortly:
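IC50 from phospho-Mer ELISA of MERTK-transfected 293A cell lysates after 1 h treatment with serially diluted compound in serum-free medium.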

Experiment [2] has as its target AXL (phospho-AXL, Gas6-stimulated A-172 glioblastoma cells) (Homo sapiens (Human), UniProt P30530). Nature of the experiment: AXL autophosphorylation ELISA in A-172 cells (Example E). Put shortly:
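Phospho-AXL was measured by ELISA in lysates of Gas6-stimulated A-172 cells, starved 24 h in serum-free medium and exposed 1 h to an 8-point compound dilution at 0.3% DMSO.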

The target of experiment [3] is KDR (phospho-KDR, VEGF165-stimulated HUVEC cells) (Homo sapiens (Human), UniProt P35968). Briefly: KDR autophosphorylation ELISA in HUVEC cells (Example G). The note with it: cellular activity; KDR autophosphorylation ELISA in HUVEC cells. Put shortly:
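Read-out: phospho-KDR in cell lysates by DuoSet IC ELISA, normalised between VEGF-stimulated DMSO wells (100%) and unstimulated wells (0%). Human endothelial cells were starved overnight in serum-free medium, exposed to compound for 1 h, and then pulsed with 100 ng/mL VEGF165 for 5 min.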
(ELISA stands for enzyme-linked immunosorbent assay.)

The target of experiment [4] is Met (phospho-Met, HGF-stimulated PC-3 prostate cancer cells) (Homo sapiens (Human), UniProt P08581). Briefly: Met autophosphorylation ELISA in PC-3 cells (Example F). The following applies: cellular activity; Met autophosphorylation ELISA in PC-3 cells; read-out: c-Met IC50. In a few lines:
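Compounds were tested on HGF-stimulated PC-3 cells. After 24 h culture and 3 h serum starvation, cells got compound for 1 h and 100 ng/mL HGF for 10 min, and Met tyrosine phosphorylation was measured by ELISA.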

The mark [5] stands for this setting: cellular activity, AXL autophosphorylation ELISA in A-172 cells, read-out: Axl IC50.

The structures appear in SMILES notation. Read-outs that look alike come from different tables or passages of the source.

Met (phospho-Met, HGF-stimulated PC-3 prostate cancer cells), sequence (P08581 25-1390): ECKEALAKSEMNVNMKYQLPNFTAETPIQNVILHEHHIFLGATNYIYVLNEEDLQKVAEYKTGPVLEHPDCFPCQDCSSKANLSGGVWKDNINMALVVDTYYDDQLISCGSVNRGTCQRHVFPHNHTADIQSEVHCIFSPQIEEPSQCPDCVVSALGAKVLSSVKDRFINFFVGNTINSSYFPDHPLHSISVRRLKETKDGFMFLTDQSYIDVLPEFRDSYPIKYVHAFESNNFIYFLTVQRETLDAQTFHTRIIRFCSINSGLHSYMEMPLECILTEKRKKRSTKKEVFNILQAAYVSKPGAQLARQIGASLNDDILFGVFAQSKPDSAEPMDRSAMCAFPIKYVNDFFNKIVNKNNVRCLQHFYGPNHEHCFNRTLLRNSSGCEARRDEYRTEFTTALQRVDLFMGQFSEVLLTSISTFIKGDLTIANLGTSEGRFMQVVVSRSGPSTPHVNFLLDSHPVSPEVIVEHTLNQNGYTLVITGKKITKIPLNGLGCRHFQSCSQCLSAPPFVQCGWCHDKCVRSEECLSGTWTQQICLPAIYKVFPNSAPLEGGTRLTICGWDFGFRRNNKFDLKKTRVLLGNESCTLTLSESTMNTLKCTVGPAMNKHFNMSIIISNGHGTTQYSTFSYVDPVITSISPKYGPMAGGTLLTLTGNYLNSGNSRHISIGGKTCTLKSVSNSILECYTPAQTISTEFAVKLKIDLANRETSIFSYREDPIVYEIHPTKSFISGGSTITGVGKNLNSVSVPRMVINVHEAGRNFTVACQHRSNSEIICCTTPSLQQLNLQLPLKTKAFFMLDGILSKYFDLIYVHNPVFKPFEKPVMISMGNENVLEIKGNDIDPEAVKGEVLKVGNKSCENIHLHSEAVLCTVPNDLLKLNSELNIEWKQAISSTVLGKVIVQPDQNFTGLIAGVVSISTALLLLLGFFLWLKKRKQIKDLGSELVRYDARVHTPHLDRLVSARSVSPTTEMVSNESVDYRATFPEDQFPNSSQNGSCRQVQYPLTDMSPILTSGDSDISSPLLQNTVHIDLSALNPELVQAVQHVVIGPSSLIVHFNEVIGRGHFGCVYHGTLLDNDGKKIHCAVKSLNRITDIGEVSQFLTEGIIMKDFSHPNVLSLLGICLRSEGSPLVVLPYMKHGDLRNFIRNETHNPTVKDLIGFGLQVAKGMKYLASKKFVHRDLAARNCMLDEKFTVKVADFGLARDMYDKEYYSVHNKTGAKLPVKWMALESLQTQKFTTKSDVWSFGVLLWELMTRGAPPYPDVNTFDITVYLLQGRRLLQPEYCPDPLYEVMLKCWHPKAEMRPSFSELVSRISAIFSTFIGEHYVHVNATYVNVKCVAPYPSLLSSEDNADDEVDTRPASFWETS
Mer (phospho-Mer, MERTK-transfected 293A cells), sequence (Q12866 21-999): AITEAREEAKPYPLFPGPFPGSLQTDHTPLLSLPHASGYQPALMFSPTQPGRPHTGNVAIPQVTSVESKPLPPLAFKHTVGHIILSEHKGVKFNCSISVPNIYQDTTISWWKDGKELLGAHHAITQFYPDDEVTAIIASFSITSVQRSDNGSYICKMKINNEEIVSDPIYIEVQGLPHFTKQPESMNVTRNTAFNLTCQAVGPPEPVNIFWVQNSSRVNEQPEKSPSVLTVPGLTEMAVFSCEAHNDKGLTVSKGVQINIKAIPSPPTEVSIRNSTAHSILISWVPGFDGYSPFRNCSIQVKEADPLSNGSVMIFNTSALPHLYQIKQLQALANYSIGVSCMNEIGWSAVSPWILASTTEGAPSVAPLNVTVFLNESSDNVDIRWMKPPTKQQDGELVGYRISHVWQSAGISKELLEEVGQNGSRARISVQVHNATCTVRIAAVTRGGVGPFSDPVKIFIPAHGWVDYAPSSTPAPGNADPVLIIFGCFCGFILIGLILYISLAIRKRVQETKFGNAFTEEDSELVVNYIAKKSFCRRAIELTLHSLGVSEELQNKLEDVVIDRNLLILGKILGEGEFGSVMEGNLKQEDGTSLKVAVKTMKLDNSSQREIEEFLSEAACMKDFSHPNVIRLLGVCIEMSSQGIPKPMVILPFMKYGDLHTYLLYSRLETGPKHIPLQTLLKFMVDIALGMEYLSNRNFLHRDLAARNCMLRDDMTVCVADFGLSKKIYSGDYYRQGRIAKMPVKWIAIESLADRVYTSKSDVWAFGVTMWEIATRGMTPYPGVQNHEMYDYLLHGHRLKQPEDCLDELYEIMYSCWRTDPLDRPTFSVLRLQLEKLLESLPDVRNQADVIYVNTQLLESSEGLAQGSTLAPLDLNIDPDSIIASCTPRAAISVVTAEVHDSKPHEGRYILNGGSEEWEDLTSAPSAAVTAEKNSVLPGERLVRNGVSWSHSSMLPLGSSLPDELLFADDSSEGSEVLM
KDR (phospho-KDR, VEGF165-stimulated HUVEC cells), sequence (P35968 20-1356): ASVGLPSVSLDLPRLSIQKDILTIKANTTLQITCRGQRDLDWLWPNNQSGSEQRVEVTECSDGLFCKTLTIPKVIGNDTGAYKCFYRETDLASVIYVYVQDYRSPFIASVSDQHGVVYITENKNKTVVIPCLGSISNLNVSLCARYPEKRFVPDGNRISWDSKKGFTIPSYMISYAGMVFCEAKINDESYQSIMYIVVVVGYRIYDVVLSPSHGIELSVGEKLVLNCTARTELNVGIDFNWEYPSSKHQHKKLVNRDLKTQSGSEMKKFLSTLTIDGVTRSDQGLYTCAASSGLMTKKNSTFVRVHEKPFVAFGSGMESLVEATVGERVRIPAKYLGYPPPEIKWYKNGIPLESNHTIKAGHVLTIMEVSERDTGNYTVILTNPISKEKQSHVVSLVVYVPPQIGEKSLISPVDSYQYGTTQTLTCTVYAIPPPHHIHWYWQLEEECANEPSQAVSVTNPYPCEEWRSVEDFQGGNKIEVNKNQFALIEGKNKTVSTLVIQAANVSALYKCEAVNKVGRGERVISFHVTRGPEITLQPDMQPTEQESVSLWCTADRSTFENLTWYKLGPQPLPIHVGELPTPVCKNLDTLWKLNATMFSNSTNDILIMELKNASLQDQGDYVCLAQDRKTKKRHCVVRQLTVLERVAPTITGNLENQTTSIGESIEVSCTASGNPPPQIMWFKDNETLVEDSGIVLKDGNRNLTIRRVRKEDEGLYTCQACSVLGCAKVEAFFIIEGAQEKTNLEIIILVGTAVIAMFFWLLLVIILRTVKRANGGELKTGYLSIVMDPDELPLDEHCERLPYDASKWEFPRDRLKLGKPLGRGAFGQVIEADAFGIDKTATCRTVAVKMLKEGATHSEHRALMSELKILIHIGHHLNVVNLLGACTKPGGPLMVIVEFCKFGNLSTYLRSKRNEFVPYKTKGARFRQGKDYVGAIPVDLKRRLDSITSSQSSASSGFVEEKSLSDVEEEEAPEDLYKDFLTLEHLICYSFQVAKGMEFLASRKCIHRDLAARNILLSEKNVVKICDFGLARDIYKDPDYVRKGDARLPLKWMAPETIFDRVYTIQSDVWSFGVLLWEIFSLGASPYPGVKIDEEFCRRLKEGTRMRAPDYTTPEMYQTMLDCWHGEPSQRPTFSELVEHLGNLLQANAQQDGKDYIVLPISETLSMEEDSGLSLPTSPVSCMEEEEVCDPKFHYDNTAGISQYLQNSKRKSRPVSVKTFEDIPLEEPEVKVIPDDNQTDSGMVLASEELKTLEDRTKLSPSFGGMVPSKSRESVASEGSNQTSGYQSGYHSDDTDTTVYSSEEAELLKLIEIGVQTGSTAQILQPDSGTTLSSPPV
AXL (phospho-AXL, Gas6-stimulated A-172 glioblastoma cells), sequence (P30530 26-894): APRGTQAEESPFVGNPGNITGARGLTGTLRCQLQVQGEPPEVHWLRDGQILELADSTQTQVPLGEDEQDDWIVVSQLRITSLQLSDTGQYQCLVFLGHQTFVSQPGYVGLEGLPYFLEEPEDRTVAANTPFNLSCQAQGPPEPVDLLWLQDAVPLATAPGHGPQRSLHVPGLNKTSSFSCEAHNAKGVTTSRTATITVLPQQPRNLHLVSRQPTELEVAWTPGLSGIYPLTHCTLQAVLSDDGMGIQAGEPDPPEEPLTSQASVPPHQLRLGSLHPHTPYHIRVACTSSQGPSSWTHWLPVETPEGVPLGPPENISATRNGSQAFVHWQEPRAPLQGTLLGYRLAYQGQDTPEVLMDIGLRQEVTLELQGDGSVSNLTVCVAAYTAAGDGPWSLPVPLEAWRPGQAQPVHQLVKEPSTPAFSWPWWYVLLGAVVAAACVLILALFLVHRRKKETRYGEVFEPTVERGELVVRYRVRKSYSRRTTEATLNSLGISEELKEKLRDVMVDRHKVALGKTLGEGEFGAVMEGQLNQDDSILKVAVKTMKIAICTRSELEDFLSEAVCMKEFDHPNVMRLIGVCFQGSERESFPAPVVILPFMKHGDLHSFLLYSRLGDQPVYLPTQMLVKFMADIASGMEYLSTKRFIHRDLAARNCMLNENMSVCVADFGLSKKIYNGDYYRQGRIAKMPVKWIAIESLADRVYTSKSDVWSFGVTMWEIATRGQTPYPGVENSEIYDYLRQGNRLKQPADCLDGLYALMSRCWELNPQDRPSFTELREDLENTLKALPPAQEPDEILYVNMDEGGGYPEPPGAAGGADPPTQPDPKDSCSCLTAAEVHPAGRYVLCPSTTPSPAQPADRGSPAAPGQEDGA

Broadly, the IC50 is the concentration that inhibits the measured activity by half. With `COc1cc2nccc(Oc3ccc(NC(=O)c4c(C)c(C(N)=O)c(C)n(-c5ccc(F)cc5)c4=O)cc3F)c2nc1OC` [Compound 318, 5-N-[4-[(6,7-Dimethoxy-1,5-naphthyridin-4-yl)oxy]-3-fluorophenyl]-1-(4-fluorophenyl)-2,4-dimethyl-6-oxopyridine-3,5-dicarboxamide], the IC50 was less than 100 nM in experiment [1], less than 100 nM in experiment [2] (setting [5]), greater than 300 nM in experiment [3] and less than 100 nM in experiment [4].

On to `COc1cc2nccc(Oc3ccc(NC(=O)c4c(C)c(C(N)=O)c(C)n(-c5ccc(F)cc5)c4=O)cc3)c2nc1OC` [Compound 319, 5-N-[4-[(6,7-Dimethoxy-1,5-naphthyridin-4-yl)oxy]phenyl]-1-(4-fluorophenyl)-2,4-dimethyl-6-oxopyridine-3,5-dicarboxamide], for which the IC50 in experiment [1] was less than 100 nM; in experiment [2] (setting [5]), less than 100 nM; in experiment [3], greater than 300 nM; in experiment [4], less than 100 nM.

For the molecule `COc1cc2nccc(Oc3ccc(NC(=O)c4c(C)c(C#N)c(C)n(-c5ccc(F)cc5)c4=O)cc3)c2nc1OC` [Compound 320, 5-Cyano-N-[4-[(6,7-dimethoxy-1,5-naphthyridin-4-yl)oxy]phenyl]-1-(4-fluorophenyl)-4,6-dimethyl-2-oxopyridine-3-carboxamide], the IC50 in experiment [1] is less than 100 nM; in experiment [2] (setting [5]) it was less than 100 nM; in experiment [3] it was greater than 300 nM; in experiment [4], less than 100 nM.

For the molecule `COc1cc2nccc(Oc3ccc(NC(=O)c4c(C)c(C(C)=O)c(C)n(-c5ccc(F)cc5)c4=O)cc3F)c2nc1OC` [Compound 321, 5-Acetyl-N-[4-[(6,7-dimethoxy-1,5-naphthyridin-4-yl)oxy]-3-fluorophenyl]-1-(4-fluorophenyl)-4,6-dimethyl-2-oxopyridine-3-carboxamide], the IC50 in experiment [1] was less than 100 nM; in experiment [2], less than 100 nM; in experiment [3], 100 to 300 nM; in experiment [4], less than 100 nM.

Consider `COc1cc2nccc(Oc3ccc(NC(=O)c4c(C)c(C(C)=O)c(C)n(-c5ccc(F)cc5)c4=O)cc3)c2nc1OC` [Compound 322, 5-Acetyl-N-[4-[(6,7-dimethoxy-1,5-naphthyridin-4-yl)oxy]phenyl]-1-(4-fluorophenyl)-4,6-dimethyl-2-oxopyridine-3-carboxamide], for which the IC50 in experiment [1] was less than 100 nM; in experiment [2] (setting [5]), less than 100 nM; in experiment [3] it was 100 to 300 nM; in experiment [4], less than 100 nM.

For `COc1cnc2c(Oc3ccc(NC(=O)c4c(C)c(C(C)=O)c(C)n(-c5ccc(F)cc5)c4=O)cc3F)ccnc2c1` [Compound 323, 5-Acetyl-N-[3-fluoro-4-[(7-methoxy-1,5-naphthyridin-4-yl)oxy]phenyl]-1-(4-fluorophenyl)-4,6-dimethyl-2-oxopyridine-3-carboxamide], the IC50 in experiment [1] was less than 100 nM; in experiment [2] (setting [5]), less than 100 nM; in experiment [3], 100 to 300 nM; in experiment [4] it was less than 100 nM.

Regarding `COc1cc2nccc(Oc3ccc(NC(=O)c4c(C)c(F)c(C)n(-c5ccc(F)cc5)c4=O)cc3F)c2nc1OC` [Compound 324, N-[4-[(6,7-Dimethoxy-1,5-naphthyridin-4-yl)oxy]-3-fluorophenyl]-5-fluoro-1-(4-fluorophenyl)-4,6-dimethyl-2-oxopyridine-3-carboxamide], the IC50 in experiment [1], in experiment [2] (setting [5]), in experiment [3] and in experiment [4] was less than 100 nM throughout.

Regarding `COc1cc2nccc(Oc3ccc(NC(=O)c4c(C)c(F)c(C)n(-c5ccc(F)cc5)c4=O)cc3)c2nc1OC` [Compound 325, N-[4-[(6,7-Dimethoxy-1,5-naphthyridin-4-yl)oxy]phenyl]-5-fluoro-1-(4-fluorophenyl)-4,6-dimethyl-2-oxopyridine-3-carboxamide], the IC50 in experiment [1], in experiment [2] (setting [5]), in experiment [3] and in experiment [4] was less than 100 nM throughout.

As for `COc1cnc2c(Oc3ccc(NC(=O)c4c(C)c(F)c(C)n(-c5ccc(F)cc5)c4=O)cc3F)ccnc2c1` [Compound 326, 5-Fluoro-N-[3-fluoro-4-[(7-methoxy-1,5-naphthyridin-4-yl)oxy]phenyl]-1-(4-fluorophenyl)-4,6-dimethyl-2-oxopyridine-3-carboxamide], the IC50 was less than 100 nM in experiment [1], less than 100 nM in experiment [2] (setting [5]), 100 to 300 nM in experiment [3] and less than 100 nM in experiment [4].

With `C=Cc1c(C)c(C(=O)Nc2ccc(Oc3ccnc4cc(OC)c(OC)nc34)c(F)c2)c(=O)n(-c2ccc(F)cc2)c1C` [Compound 327, N-[4-[(6,7-Dimethoxy-1,5-naphthyridin-4-yl)oxy]-3-fluorophenyl]-5-ethenyl-1-(4-fluorophenyl)-4,6-dimethyl-2-oxopyridine-3-carboxamide], the IC50 in experiment [1], in experiment [2] (setting [5]), in experiment [3] and in experiment [4] was less than 100 nM in each case.

For `C=Cc1c(C)c(C(=O)Nc2ccc(Oc3ccnc4cc(OC)c(OC)nc34)cc2)c(=O)n(-c2ccc(F)cc2)c1C` [Compound 328, N-[4-[(6,7-Dimethoxy-1,5-naphthyridin-4-yl)oxy]phenyl]-5-ethenyl-1-(4-fluorophenyl)-4,6-dimethyl-2-oxopyridine-3-carboxamide], the IC50 in experiment [1] was less than 100 nM; in experiment [2] (setting [5]) it was less than 100 nM; in experiment [3], greater than 300 nM; in experiment [4], less than 100 nM.

Regarding `C=Cc1c(C)c(C(=O)Nc2ccc(Oc3ccnc4cc(OC)cnc34)c(F)c2)c(=O)n(-c2ccc(F)cc2)c1C` [Compound 329, 5-ethenyl-N-[3-fluoro-4-[(7-methoxy-1,5-naphthyridin-4-yl)oxy]phenyl]-1-(4-fluorophenyl)-4,6-dimethyl-2-oxopyridine-3-carboxamide], the IC50 in experiment [1] is less than 100 nM; in experiment [2] (setting [5]), less than 100 nM; in experiment [3] it was 100 to 300 nM; in experiment [4], less than 100 nM.

In the case of `CCc1c(C)c(C(=O)Nc2ccc(Oc3ccnc4cc(OC)c(OC)nc34)c(F)c2)c(=O)n(-c2ccc(F)cc2)c1C` [Compound 330, N-[4-[(6,7-dimethoxy-1,5-naphthyridin-4-yl)oxy]-3-fluorophenyl]-5-ethyl-1-(4-fluorophenyl)-4,6-dimethyl-2-oxopyridine-3-carboxamide], the IC50 in experiment [1] was less than 100 nM; in experiment [2] (setting [5]) it was less than 100 nM; in experiment [3], greater than 300 nM; in experiment [4], less than 100 nM.

As for `CCc1c(C)c(C(=O)Nc2ccc(Oc3ccnc4cc(OC)c(OC)nc34)cc2)c(=O)n(-c2ccc(F)cc2)c1C` [Compound 331, N-[4-[(6,7-dimethoxy-1,5-naphthyridin-4-yl)oxy]phenyl]-5-ethyl-1-(4-fluorophenyl)-4,6-dimethyl-2-oxopyridine-3-carboxamide], the half-maximal inhibitory concentration (IC50) in experiment [1] is less than 100 nM; in experiment [2] (setting [5]) it was less than 100 nM; in experiment [3], greater than 300 nM; in experiment [4], less than 100 nM.

Regarding `COc1cc2nccc(Oc3ccc(NC(=O)c4c(C)ccn(-c5ccc(F)cc5C)c4=O)cc3)c2nc1OC` [Compound 332, N-[4-[(6,7-dimethoxy-1,5-naphthyridin-4-yl)oxy]phenyl]-1-(4-fluoro-2-methylphenyl)-4-methyl-2-oxopyridine-3-carboxamide], the IC50 in experiment [1], in experiment [2] (setting [5]), in experiment [3] and in experiment [4] was less than 100 nM each time.

`CCOc1c(C(=O)Nc2ccc(Oc3ccnc4cc(OC)c(OC)nc34)c(F)c2)cnc(C)c1-c1ccc(F)cc1` [Compound 333, N-[4-[(6,7-dimethoxy-1,5-naphthyridin-4-yl)oxy]-3-fluorophenyl]-4-ethoxy-5-(4-fluorophenyl)-6-methylpyridine-3-carboxamide]: the IC50 is less than 100 nM in experiment [1], less than 100 nM in experiment [2] (setting [5]), 100 to 300 nM in experiment [3] and less than 100 nM in experiment [4].

Turning to `COc1cnc2c(Oc3ccc(NC(=O)c4c(C)ccn(-c5ccc(F)cc5C)c4=O)cc3F)ccnc2c1` [Compound 334, N-[3-fluoro-4-[(7-methoxy-1,5-naphthyridin-4-yl)oxy]phenyl]-1-(4-fluoro-2-methylphenyl)-4-methyl-2-oxopyridine-3-carboxamide], the IC50 in experiment [1] was less than 100 nM; in experiment [2] (setting [5]), 100 to 300 nM; in experiment [3], less than 100 nM; in experiment [4], less than 100 nM.

Consider `CCc1c(C)c(C(=O)Nc2ccc(Oc3ccnc4cc(OC)cnc34)c(F)c2)c(=O)n(-c2ccc(F)cc2)c1C` [Compound 335, 5-ethyl-N-[3-fluoro-4-[(7-methoxy-1,5-naphthyridin-4-yl)oxy]phenyl]-1-(4-fluorophenyl)-4,6-dimethyl-2-oxopyridine-3-carboxamide], for which the IC50 in experiment [1] is less than 100 nM; in experiment [2] (setting [5]) it was less than 100 nM; in experiment [3], greater than 300 nM; in experiment [4], less than 100 nM.

For the origin of these results see patent US12371428B2 (Exelixis, Inc., priority 2019, dated 2025).
